Measurements: patent publication US20220064291A1, “METHODS OF USING BUTYROPHILIN ANTIBODIES FOR TREATING HIV INFECTION” (Merck Sharp & Dohme Corp., priority 2018, published 2022)

Experiments:
[1] = system: HIV latent primary CD4+ T cells; test: Competition with recombinant BTN-Fc proteins against anti-BTN3A 20.1-mediated virus reactivation; assay type: cell-based, human; conditions: recombinant Fc proteins 0.03-10 μg/ml; 24 h; FIG. 6
Method: To confirm the specificity of anti-BTN3A antibody-mediated activity on latent virus activity and T cell activation, we performed competition experiments using recombinant BTN proteins. Briefly, 96-well flat bottom tissue culture plates (Corning) were coated with anti-CD3 (1 μg/ml) and anti-BTN3A 20.1 antibody (5 μg/ml) in PBS for 16 h in a 4° C. refrigerator. The next day, antibodies were aspirated using a multichannel pipette and various concentrations of recombinant BTN-Fc proteins BTN3A1-Fc and BTN3A2-Fc (10 μg/ml, 3 μg/ml, 1 μg/ml, 0.3 μg/ml, 0.1 μg/ml, and 0.03 μg/ml) were added to antibody coated plates in 2% FBS (in PBS). BTN2A2-Fc and human IgG Fc were used as controls. After 30 min incubation at RT recombinant Fc proteins were aspirated using a multichannel pipette. Next, HIV latent primary CD4+ T cells from two donors were added to the antibody coated plates in duplicates at 125,000 cells/well in 200 ul of primary cell media (RPMI with 10% FBS, 50 μg/ml Primocin™). At 24h post treatment virus reactivation was measured using a Nano-Glo® Luciferase Assay (Promega) (FIG. 6).

human CD4+ T cells = test: Inhibition of anti-CD3 (TCR)-mediated T cell activation by recombinant butyrophilin-Fc proteins, bead- and plate-based assays; conditions: anti-CD3 stimulation, FIG. 3
Method: To characterize the role of butyrophilins in regulating T cell responses, T cell assays were performed using recombinant human butyrophilin-Fc proteins. Specifically, we assessed the role of butyrophilins in inhibiting T cell receptor (TCR)-mediated T cell activation by anti-CD3 antibody (clone OKT3). Experiments were performed in bead- and plate-based formats.
Briefly, PBMCs were isolated from healthy human donors (Biological Specialty Corporation, Colmar, Pa.). To generate T cell blasts, PBMCs were treated with IL-2 (4u/ml) and PHA (1 μg/ml) in RPMI media containing 10% Fetal bovine serum (Gibco, Gaithersburg, Md.), penicillin (100U/ml)/streptomycin (0.1 mg/ml) (Gibco, Gaithersburg, Md.), and L-Glutamine (2 mM) (Gibco, Gaithersburg, Md.) at 37° C. in a CO2 incubator for 7 days. Fresh media was added once every 3 days. […]
4. […] T cell activation was measured based on IFNγ expression using a V-PLEX proinflammatory panel 1 human assay (Meso Scale Discovery, Rockville, Md.) (FIG. 3A-C).
Sterile 96-well flat bottom tissue culture plates (Corning) were coated with 1 μg/ml of anti-CD3 antibody (Clone OKT3, BD Pharmingen) in PBS+/− the following Fc-fusion proteins: BTN2A2-Fc, BTN3A1-Fc, or human IgG Fc. […] T cell activation was measured based on IFNγ expression using a V-PLEX proinflammatory panel 1 human assay (Meso Scale Discovery, Rockville, Md.) (FIG. 3D).

BTN3A1-Fc: recombinant human butyrophilin-Fc fusion protein, R&D systems
inhibition of anti-BTN3 20.1 Ab-mediated latent HIV activation and T cell activation [1]: dose-dependent inhibition | activation of human CD4+ T cells (IFNγ production, T cell proliferation, IL-2 production) (human CD4+ T cells): block activation
